Holding throughout (format): cell-based
Common to all, as to details: 1.0 μg/ml

For one test, the system named is Human (spleen). Nature of the test: IF induction in vitro, human spleen (Table 6). On the procedure: (§1) A spleen cell suspension (10^7 cells/ml) was prepared by the method of hereinafter described Experiment 1 using an Eagle MEM medium (commercial product of Nissui Seiyaku K.K., Tokyo) containing a 10% calf serum (which was replaced by a 10% fetal cattle serum in the cases of human tests), each of which fraction (1 ml) was added with a given concetration of the sample and incubated overnight at a given temperature. The cultured liquor was centrifuged to separate a supernatant which was used for determining the IF activity induced. In the case of humans, the fresh spleen was collected from a person (adult deceased by external wounds) and used for the preparation of a leucocytes suspension on each occasion, and also blood was collected from the vein at the upper arm of a person (adult), from which the serum was separated to use for the preparation of a serum suspension on each occasion.
(§2) The IF activities were determined by using the cells shown in Table 5 in a similar manner to that hereinafter described in Experiment 1.

Test [1] deals with spleen cell suspension. Nature of the test: IF induction in vitro, rabbit (Table 6). The method, then:
as §1, §2

Test [2] deals with spleen cell suspension. Nature of the test: IF induction in vitro, mouse (Table 6). The method, then: as §1, §2

Poly I:C: the figures for the “IF activity in vitro (Control)” value with Human (spleen), with spleen cell suspension [1] and in the test on spleen cell suspension [2] were under 10, 190 and 80, respectively.

The record behind these values is US4456597A.
